# From patent US20240041830A1, “CIRCULATING BIOMARKERS OF RESPONSE TO PD-1/PD-L1 BLOCKADE AND GSK-3 INHIBITION” (Brown University, priority 2022, published 2024)
# Legend:
# HCT-116 = assay: Western blot analysis; format: cell-based, human
# Experimental: (§1) Pyroptosis assay. Recombinant Human TNF-α (Cat #300-01A, PeproTech, Rocky Hill, NJ, USA) and Recombinant Human IFN-γ (Cat #300-02, PeproTech, Rocky Hill, NJ, USA) were purchased for use in western blot analysis while rhTRAIL was generated in-house. See Kim et al., J. Biol. Chem., 279, 40044-40052 (2004).
# (§2) Western blot analysis. Cells were plated in a 6-well plate and incubated overnight before the spent media was replaced with drugged media. Drug treatment lasted for indicated durations. Protein was extracted using radioimmunoprecipitation (RIPA) assay buffer (Cat #R0278, Sigma-Aldrich, St. Louis, MO, USA) containing cOmplete™, Mini, EDTA-free Protease Inhibitor Cocktail (Cat #4693159001, Roche, Basel, Switzerland) from sub-confluent cells. Denaturing sample buffer was added, samples were boiled at 95° C. for ten minutes, and an equal amount of protein lysate was electrophoresed through NuPAGE™ 4 to 12%, bis-Tris, 1.5 mm, Mini Protein Gels (Invitrogen, Waltham, MA, USA) then transferred to PVDF membranes. The PVDF membrane was blocked with 5% non-fat milk (Sigma-Aldrich, St. Louis, MO, USA) in 1× TTBS. Primary antibodies were incubated with the transferred PVDF membrane in blocking buffer at 4° C. overnight. Secondary antibodies included Goat anti-Rabbit IgG (H+L) Secondary Antibody, HRP (Cat #31460, Invitrogen, Waltham, MA, USA), and Goat anti-Mouse IgG (H+L) Secondary Antibody, HRP (Cat #31430, Invitrogen, Waltham, MA, USA). The signal was detected using Pierce™ ECL Western Blotting Substrate (Cat #32106, Thermo Scientific, Waltham, MA, USA) and a Syngene Imaging System (RRID: SCR_015770).
# (§3) Elraglusib uprequlates tumor cell PD-L1 and proapoptotic pathway expression as well as downregulates immunosuppressive/angiogenic protein expression and pro-survival pathways. The inventors performed Western blot analyses on colorectal cancer cells (HCT-116, HT-29) treated with elraglusib over a 72-hour time course. […] The inventors observed increases in PD-L1 expression as the treatment duration increased. To further elucidate the elraglusib-mediated effects on tumor cell survival, the inventors probed for survival factors Bcl-2 and Survivin and noted decreases in protein expression in both cell lines, especially at the later timepoints (forty-eight hours, seventy-two hours). […] HCT116 cells are heterozygous for β-catenin, harboring one wild-type allele and one mutant allele with inactivation of one of the residues phosphorylated by GSK-3β that is frequently mutated in tumors. Kaler, Augenlicht, & Klampfer, PLoS ONE, 7, e45462 (2012). HT-29, KM12C, and SW480 cells harbor APC mutations. Rowan et al., Proc. Natl. Acad. Sci. USA, 97, 3352 (2000).
# HT-29 = assay: Western blot analysis; format: cell-based, human
# Experimental: as §1, §2, §3
# SW480 = assay: multicolor co-culture of SW480 and donor-derived CD8+ T cells; conditions: co-culture with donor-derived CD8+ T cells, 24 hours, normalized
# Experimental: Isolation of donor-derived CD8+ T cells. An Easy Step Human CD8+ T Cell Isolation Kit was used to isolate CD8+ T cells from a donor PBMC sample via negative selection (Cat #, 17913, Stem Cell Technologies, Vancouver, Canada).
# Multicolor immune cell co-culture experiments. A total of 10,000 HCT-116, SW480, or HT-29 colorectal cancer cells were plated per well in a clear-bottom, black-walled 48-well tissue culture plate and were allowed to adhere overnight. Cells were subsequently treated with DMSO, 5 μM or 10 μM elraglusib, or 10,000 TALL-104, donor-derived CD8+ T cells, or NK-92 cells (for an effector-to-tumor ratio of 1:1) for twenty-four hours. Immune cell monocultures were treated with DMSO, 5 μM or 10 μM elraglusib and cell viability was monitored to ensure that the concentrations of drug used were not cytotoxic to immune cells. […] 10× images were captured using a Nikon Ti-U Inverted Fluorescence Microscope and NIS-Elements F Package imaging software 3.22.00 Build 710 (Nikon Instruments Inc., New York, NY, USA). The number of red/green color cells in random fields was determined using thresholding and particle analysis in the Fiji modification (RRID: SCR_002285) of ImageJ and expressed as a dead/live cell ratio. […] At least one hundred cells were evaluated per sample, with three independent replicates. […]
# [1] = tested on: refractory solid tumors of multiple tissue origins; assay: Phase 1 clinical trial (NCT03678883), survival; format: in vivo, human
# Experimental: Clinical specimens. Archival tumor specimens and peripheral blood samples were collected from patients enrolled in the Phase I study of elraglusib (Clinicaltrials.gov NCT03678883) who received treatment at the Lifespan Cancer Institute (Providence, RI, USA). The analysis was conducted in accordance with the Declaration of Helsinki and the International Conference on Harmonization Good Clinical
# Patient plasma concentrations of cytokines from a Phase 1 clinical trial investigating elraglusib correlate with progression-free survival, overall survival, and in vivo response to therapy results. To determine the clinical relevance of the biomarkers of response identified in our murine model, the inventors next employed Luminex 200 technology to analyze plasma samples from patients with refractory solid tumors of multiple tissue origins enrolled in a Phase 1 clinical trial investigating elraglusib (NCT03678883).
# TABLE 14 description. Individual patient information for human cytokine analysis. Tumor type, elraglusib dose (mg, mg/kg), number of cycles, age at enrollment, sex, race, ethnicity, median progression free survival and median overall survival data is shown (N=19).
# [2] = as treatment duration increased
# [3] = especially forty-eight, seventy-two hours
# [4] = low dose, until the 48-hour timepoint
# [5] = N=19 patients, multiple tumor types
# [6] = Subject 05003, Colorectal, 1 mg/kg
# [7] = Subject 05005, Colorectal, 1 mg/kg, 2 cycles
smiles,measurement,setting,value
Cn1cc(C2=C(c3coc4ccc(F)cc34)C(=O)NC2=O)c2cc3c(cc21)OCO3 [elraglusib],NF-κB p65 expression,HCT-116; 72-hour time course,decreased expression
same,PD-L1 expression,HCT-116; [2],increases
same,Mcl-1 protein expression,HCT-116; by the 24-hour timepoint,marked decreases
same,Bcl-2 protein expression,HCT-116; [3],decreases
same,Survivin protein expression,HCT-116; [3],decreases
same,cleaved PARP (cPARP),HCT-116; [4],little to no cleaved PARP
same,NF-κB p65 expression,HT-29; 72-hour time course,decreased expression
same,PD-L1 expression,HT-29; [2],increases
same,Bcl-2 protein expression,HT-29; [3],decreases
same,Survivin protein expression,HT-29; [3],decreases
same,cleaved PARP (cPARP),HT-29; [4],little to no cleaved PARP
same,dead cells out of total cells,SW480; 5 μM,65%
same,dead cells out of total cells,SW480; 10 μM,75%
same,median overall survival,[1]; [5],101 days
same,median progression-free survival,[1]; [5],75.9 days
same,OS,[1]; [6],26 days
same,PFS,[1]; [6],26 days
same,PFS,"[1]; Subject 05004, Colorectal, 1 mg/kg",28 days
same,OS,[1]; [7],105 days
same,PFS,[1]; [7],99 days
same,OS,"[1]; Subject 05006, HCC, 2 mg/kg",234 days
same,PFS,"[1]; Subject 05006, HCC, 2 mg/kg",234 days
same,PFS,"[1]; Subject 05009, Cholangiocarcinoma, 2 mg/kg",46 days
same,OS,"[1]; Subject 05011, NSCLC, 2 mg/kg",39 days
same,PFS,"[1]; Subject 05011, NSCLC, 2 mg/kg",31 days
same,PFS,"[1]; Subject 05013, Colorectal, 3.3 mg/kg",130 days
same,PFS,"[1]; Subject 05017, Colorectal, 5 mg/kg",83 days
same,PFS,"[1]; Subject 05018, NSCLC, 5 mg/kg",41 days
same,PFS,"[1]; Subject 05024, Appendix, 7 mg/kg",41 days
